Experimental findings from US7410989B2, “Compounds, methods and compositions useful for the treatment of bovine viral diarrhea virus (BVDV) infection and hepatitis C virus (HCV) infection” (The University of North Carolina at Chapel Hill, priority 2001, dated 2008) are described below.

Structures can show the parent of a compound that is named as a salt. A value given as a limit tells only on which side of the number the result lay.

In series [1] the test system is BVDV. As to the kind of experiment: Screening of antiviral compounds for anti-BVDV activity in MDBK cells; virus titre by immunoperoxidase monolayer assay. It counts as cell-based, bovine viral diarrhea virus. The conditions noted are these: 12.5 μM compound, BVDV MOI 0.5, day 3. As for the experimental part: 2.0 cm^2 wells in a 24-well plate were seeded with 50 μl of medium from 12 ml of MEM-eq (minimum essential medium (MEM) with Earle's salts supplemented with 10% (v/v) equine serum, sodium bicarbonate (0.75 mg/ml), L-glutamine (0.29 mg/ml), penicillin G (100 U/ml), streptomycin (100 μg/ml), and amphotericin B (0.25 μg/ml)), which was derived by trypsinization of a confluent monolayer of Madin Darby Bovine Kidney (MDBK) cells in a 25 cm^2 flask. Cells were incubated at 38.5° C. with 5% CO2 for 24 hours. The average number of cells per well was determined and later used to calculate appropriate multiplicities of infection (MOI) of BVDV virus. […]
The inoculated cells incubated for one hour at 38.5° C. with 5% CO2 in humidified air. The medium was removed from the wells, and the cells washed one time with Ca^2+ and Mg^2+-free PBS comprising antiviral compound (12.5 μM) (cells in the wells not initially treated with antiviral compounds were washed without antiviral compound). […] Three days post-inoculation, medium was removed and stored at −20° C. for assay. […] Seven days post-inoculation, medium was removed and stored at −80° C. for serial dilution & assay.
The MDBK cells were resuspended in MEM-eq with no antiviral compound. Uterine tubal cells (UTC) were freeze-thawed and stored at −80° C. for analysis. UTC lysates were serially diluted with medium from Day 7 and assayed by immunoperoxidase for the presence of BVDV.
All samples were assayed for BVDV using the immunoperoxidase monolayer assay as described in A. Afshar et al., Can J Vet Res; 55:91-93 (1991). Samples were assayed in triplicate by adding 50 μL of MEM-eq containing approximately 2.5×10^3 MDBK cells to 50-μL of each sample supplemented with 50 μL of fresh MEM-eq in a 96-well culture plate. Plates were incubated for 72 h at 38.5° C. in a humidified atmosphere of 5% CO2 and air before the immunoperoxidase labeling technique was performed as follows:
After fixation, potentially infected cells were incubated with monoclonal antibodies D89 (M. L. Vickers et al., J Vet Diagn Invest 2, 300-302 (1990); Xue W et al., J Clin Microbiol 28, 1688-1693 […] specific for E2/gp53, a major envelope glycoprotein of BVDV (Xue W et al., Vet Microbiol 57, 105-118 (1997)) and 20.10.6 specific for NS3-p80, a conserved nonstructural protein (W. V. Corapi et al., Am J Vet Res 51, 1388-1394 (1990)). After washing with PBS and Tween 20 to remove unbound antibodies, peroxidase-conjugated rabbit anti-mouse IgG (Jackson Immuno Research Lab, West Grove, Pa.) was added. After a short incubation period, unbound peroxidase-conjugated antibody was removed by washing with PBS and Tween 20. Finally, the enzyme substrate, aminoethyl carbazole (Zymed Laboratories, Inc., South San Francisco, Calif.), which produces a reddish-brown color when oxidized by horseradish peroxidase, was added. Color change was visualized under light microscopy and compared to known positive and negative controls on each plate.
The tissue culture infective dose 50% (TCID50)/ml of the exposure aliquot was determined by the method of Reed and Muench (L. J. Reed and H. Muench, Am J Hygiene 27, 493-497 (1938). Results of viral detection assays were compared using a Pearson Chi-square test statistic (J. Sall and A. Lehman, JMP Start Statistics (Duxbury Press, Belmont, Calif. (1996), 195-211).

On to `Cc1cc(NC(=N)N)ccc1-c1ccc(-c2ccc(NC(=N)N)cc2C)o1.Cl.Cl`, for which the melting point is 265 to 271 °C (dec.).

On to `Nc1ccc(-c2ccc(-c3nc4ccc(C5=NCCN5)cc4[nH]3)o2)cc1` (as salt: salt) [DB 456, 2-[5 (6)-{2-imidazolinyl}-2-benzimidazoyl]-5-(4-aminophenyl)furan], for which the melting point is above 300 °C.

Molecule `O=[N+]([O-])c1ccc(-c2ccc(-c3nc4ccc(C5=NCCN5)cc4[nH]3)o2)cc1` (as salt: salt) [DB 457, 2-[5 (6)-{2-imidazolinyl}-2-benzimidazoyl]-5-(4-nitrophenyl)furan] showed a melting point above 300 °C.

Consider `Cl.Cl.N=C(N)Nc1ccc(-c2ccc(-c3ccc(NC(=N)N)cc3Cl)o2)c(Cl)c1`, for which the melting point was 300 to 304 °C (dec.).

With `N=C(N)Nc1ccc(-c2ccc(-c3ccc(NC(=N)N)cc3Cl)o2)c(Cl)c1` [DB 708], the “Day 3 Cell Lysates TCID50/mL” value in series [1] (cell lysates) is “Negative”. For the same molecule, in series [1] (culture medium), the “Day 3 Media TCID50/mL” value was “Negative”.
